Common to all, as to test: Antibiogram by diffusion technique (CA-SFM 2008)
Type in all cases: cell-based

The subject of assay [1] is Enterobacter aerogenes (9004). The note with it: strain 9004. An excerpt: (§1) Three clinical categories were selected for interpretation of the in vitro sensitivity tests: sensitive (S), resistant (R) and intermediate (I). • The strains categorized S are those for which the probability of therapeutic success is high in the case of treatment by systemic route with the dosing schedule recommended in the summary of product characteristics (SPC) prepared by the French Health Products Safety Agency (AFSSAPS). • The strains categorized R are those for which there is a high probability of therapeutic failure regardless of treatment type and antibiotic dose. • The strains categorized I are those for which therapeutic success cannot be predicted. These strains form a heterogeneous group for which the results obtained in vitro are not predictive of therapeutic success. […] The intermediate category is also a buffer zone which takes into account technical and biological uncertainties.
(§2) The sensitivity of strains to antibiotics was determined by a diffusion technique according to the 2008 recommendations by the Antibiogram Committee of the French Microbiology Society (CA-SFM).
(§3) In terms of critical concentrations and diameters, strains are categorized as follows: • sensitive (S): strains for which the MIC of the antibiotic tested is less than or equal to the lower critical concentration c, which is equivalent to a diameter greater than or equal to the critical diameter D; • resistant (R): strains for which the MIC of the antibiotic tested are greater than the upper critical concentration C, corresponding to a diameter less than the critical diameter d; • intermediate sensitivity (I): strains for which the MIC of the antibiotic tested and the corresponding diameter are between the two critical concentrations and the two critical diameters.
(§4) The tests were carried out on Mueller-Hinton agar. An inoculum adjusted to 0.5 on the McFarland scale is then diluted to 1/100. Petri dishes are inoculated by swabbing. The dishes are read after 24 hours of incubation at 37° C.
(§5) The raw results are then interpreted according to the interpretative reading rules of the CA-SFM.

The subject of a further assay is E. coli strain 9003.
Excerpt: as §1, §2, §3, §4, §5

In the next assay the test system is E. coli ATCC 25922. On the set-up: Diameter (D): unit not given here. The text has this: Three clinical categories were selected for interpretation of the in vitro sensitivity tests: sensitive (S), resistant (R) and intermediate (I). • The strains categorized S are those for which the probability of therapeutic success is high in the case of treatment by systemic route with the dosing schedule recommended in the summary of product characteristics (SPC) prepared by the French Health Products Safety Agency ([…]). • The strains categorized R are those for which there is a high probability of therapeutic failure regardless of treatment type and antibiotic dose. • The strains categorized I are those for which therapeutic success cannot be predicted. These strains form a heterogeneous group for which the results obtained in vitro are not predictive of therapeutic success. […] The intermediate category is also a buffer zone which takes into account technical and biological uncertainties. The sensitivity of strains to antibiotics was determined by a diffusion technique according to the 2008 recommendations by the Antibiogram Committee of the French Microbiology Society (CA-SFM). In terms of critical concentrations and diameters, strains are categorized as follows: • sensitive (S): strains for which the MIC of the antibiotic tested is less than or equal to the lower critical concentration c, which is equivalent to a diameter greater than or equal to the critical diameter D; • resistant (R): strains for which the MIC of the antibiotic tested are greater than the upper critical concentration C, corresponding to a diameter less than the critical diameter d; • intermediate sensitivity (I): strains for which the MIC of the antibiotic tested and the corresponding diameter are between the two critical concentrations and the two critical diameters. The tests were carried out on Mueller-Hinton agar. An inoculum adjusted to 0.5 on the McFarland scale is then diluted to 1/100. Petri dishes are inoculated by swabbing. The dishes are read after 24 hours of incubation at 37° C. The raw results are then interpreted according to the interpretative reading rules of the CA-SFM. Two examples: all strains of methicillin-resistant Staphylococcus are resistant to all beta-lactams, and the same is true for gentamicin-resistant strains; golden staph is necessarily resistant to kanamycin (and amikacin) and tobramycin. The quality of the diffusion method is controlled using E. coli strain ATCC 25922.

Assay [2] relates to strain 9007, Pseudomonas aeruginosa, with VIM-2 carbapenemase.
Excerpt: as §1, §2, §3, §4, §5

The subject of assay [3] is strain 9010, Acinetobacter baumannii, with VEB-1 ESBL.
Excerpt: as §1, §2, §3, §4, §5

For the next assay, the system named is E. coli strain 8154. On the set-up: D: unit not given here.
Excerpt: as §1, §2, §3, §4, §5

Assay [4] has as its system Pseudomonas aeruginosa strain 8134. Set-up: D: unit not given here.
Excerpt: as §1, §2, §3, §4, §5

For assay [5], the system named is Pseudomonas aeruginosa strain 8129. On the set-up: D: unit not given here.
Excerpt: as §1, §2, §3, §4, §5

In assay [6] the test system is Pseudomonas aeruginosa strain 8132. Set-up: D: unit not given here.
Excerpt: as §1, §2, §3, §4, §5

In a further assay the test system is E. coli strain 8155. Set-up: D: unit not given here.
Excerpt: as §1, §2, §3, §4, §5

A further assay has as its system E. coli strain 8156. On the set-up: D: unit not given here.
Excerpt: as §1, §2, §3, §4, §5

The test system of assay [7] is Pseudomonas aeruginosa strain 8128. On the set-up: D: unit not given here.
Excerpt: as §1, §2, §3, §4, §5

Another assay concerns E. coli strain 8157. On the set-up: D: unit not given here.
Excerpt: as §1, §2, §3, §4, §5

Another assay deals with Enterococcus strain 8152. Set-up: Diameter: unit not given here.
Excerpt: as §1, §2, §3, §4, §5

The next assay relates to Enterococcus strain 8153. Set-up: Diameter: unit not given here.
Excerpt: as §1, §2, §3, §4, §5

Assay [8] concerns golden staph (S. aureus) strain 8239. Set-up: D: unit not given here.
Excerpt: as §1, §2, §3, §4, §5

For assay [9], the system named is golden staph (S. aureus) strain 8147. On the set-up: D: unit not given here.
Excerpt: as §1, §2, §3, §4, §5

The test system of assay [10] is golden staph (S. aureus) strain 8240. Set-up: D: unit not given here.
Excerpt: as §1, §2, §3, §4, §5

As to `NCC[C@H](O)C(=O)N[C@@H]1C[C@H](N)[C@@H](O[C@H]2O[C@H](CN)[C@@H](O)[C@H](O)[C@H]2O)[C@H](O)[C@H]1O[C@H]1O[C@H](CO)[C@@H](O)[C@H](N)[C@H]1O` [Amikacin], the Category result in [1] was “I”; in the assay on E. coli strain 9003 it was “S”.

With `CO/N=C(\C(=O)N[C@@H]1C(=O)N2C(C(=O)[O-])=C(C[N+]3(C)CCCC3)CS[C@H]12)c1csc(N)n1` [Cefepime], in the assay with E. coli ATCC 25922, the “Category (Cat.)” value is listed as “S”. For the same molecule, in the assay on E. coli ATCC 25922, the “Diameter (D)” value worked out at 25. The Category entry in [2] is given as “S”; in [1], “R”; in the assay on E. coli strain 9003 it was “R”; in assay [3], “R”. For the same molecule, the Cat. result (with E. coli strain 8154; in assay [4]; in assay [5]; in [6]; in the assay with E. coli strain 8155; with E. coli strain 8156) was “S” throughout. In addition, the Cat. result (in assay [7]; in the assay on E. coli strain 8157) was “S” in each case.

Take `CO/N=C(\C(=O)N[C@@H]1C(=O)N2C(C(=O)O)=C(COC(C)=O)CS[C@H]12)c1csc(N)n1` [Cefotaxime]: the Category entry (in [1]; with E. coli strain 9003) was “R” each time.

As to `CO[C@@]1(NC(=O)Cc2cccs2)C(=O)N2C(C(=O)O)=C(COC(N)=O)CS[C@@H]21` [Cefoxitin], the “Category (Cat.)” value in the assay on E. coli ATCC 25922 is recorded as “S”. For the same molecule, the “Diameter (D)” value with E. coli ATCC 25922 was found to be 24. Also, the Category result in assay [2] is recorded as “R”; in [3], “R”; in the assay on Enterococcus strain 8152, “R”; in the assay with Enterococcus strain 8153 it was “S”. In addition, the Diameter in the assay with Enterococcus strain 8152 was 0; in the assay with Enterococcus strain 8153, 25. In addition, the Cat. entry is recorded as “S” with E. coli strain 8154; “R” in assay [4]; “R” in [5]; “R” in assay [6]; “S” in the assay on E. coli strain 8155; “S” with E. coli strain 8156. In addition, the Cat. result in assay [7] is “R”; in the assay with E. coli strain 8157 it was “S”. Besides, the D came out at 26 in the assay on E. coli strain 8154; 0 in assay [4]; 0 in [5]; 0 in assay [6]; 25 with E. coli strain 8155; 26 with E. coli strain 8156. Moreover, the D in assay [7] is reported as 0; with E. coli strain 8157, 30.

With `CC(C)(O/N=C(\C(=O)N[C@@H]1C(=O)N2C(C(=O)[O-])=C(C[n+]3ccccc3)CS[C@H]12)c1csc(N)n1)C(=O)O` [Ceftazidime], the “Category (Cat.)” value with E. coli ATCC 25922 was “S”. For the same molecule, in the assay with E. coli ATCC 25922, the “Diameter (D)” value was 25. Further, the Category result in assay [2] is listed as “S”; in [1] it was “R”; in the assay with E. coli strain 9003 it was “R”; in assay [3], “R”. The Cat. entry with E. coli strain 8154 is “S”; in [4], “S”; in assay [5], “R”; in assay [6], “S”; with E. coli strain 8155, “S”; in the assay on E. coli strain 8156, “S”. For the same molecule, the Cat. entry (in assay [7]; in the assay on E. coli strain 8157) was “S” each time. The D with E. coli strain 8154 is given as 30; in [4] it was 25; in [5] it was 0; in [6], 26; in the assay with E. coli strain 8155 it was 30; with E. coli strain 8156, 33. Besides, the D in assay [7] is on record as 25; in the assay with E. coli strain 8157 it was 30.

For `C[C@@H](O)[C@H]1C(=O)N2C(C(=O)O)=C(S[C@@H]3CN[C@H](C(=O)Nc4cccc(C(=O)O)c4)C3)[C@H](C)[C@H]12` [Eratpenem], the Category result (in [1]; with E. coli strain 9003) was “S” each time.

On to `C[C@@H](O)[C@H]1C(=O)N2C(C(=O)O)=C(SCCN=CN)C[C@H]12` [Imipenem], for which the “Category (Cat.)” value in the assay on E. coli ATCC 25922 is “S”. Moreover, the “Diameter (D)” value in the assay with E. coli ATCC 25922 worked out at 34. Moreover, the Category entry is listed as “R” in [2], “S” in [1], “S” in the assay on E. coli strain 9003 and “S” in [3]. Further, the Cat. result in the assay on E. coli strain 8154 was “S”; in assay [4] it was “S”; in [5] it was “S”; in assay [6] it was “R”; in the assay on E. coli strain 8155 it was “S”; with E. coli strain 8156, “S”. Moreover, the Cat. entry (in assay [7]; in the assay with E. coli strain 8157) was “I” each time. Besides, the D in the assay on E. coli strain 8154 amounted to 33; in assay [4], 26; in assay [5], 36; in [6], 13; with E. coli strain 8155, 34; with E. coli strain 8156, 34. In addition, the D is on record as 18 in [7] and 20 in the assay on E. coli strain 8157.

Regarding `CCn1cc(C(=O)O)c(=O)c2ccc(C)nc21` [Nalidixic acid], the “Category (Cat.)” value with E. coli ATCC 25922 is on record as “S”. Further, the “Diameter (D)” value with E. coli ATCC 25922 was 28. Besides, the Category result in assay [2] and in assay [3] was “R” in each case. Also, the Cat. result is reported as “S” with E. coli strain 8154; “R” in assay [4]; “R” in [5]; “R” in [6]; “S” in the assay with E. coli strain 8155; “S” in the assay with E. coli strain 8156. Besides, the Cat. entry (in assay [7]; with E. coli strain 8157) was “R” in each case. The D in the assay with E. coli strain 8154 was 24; in assay [4], 0; in [5] it was 0; in assay [6], 0; in the assay with E. coli strain 8155, 28; in the assay on E. coli strain 8156 it was 27. Moreover, the D (in [7]; in the assay with E. coli strain 8157) was 0 in each case.

As to `CCn1cc(C(=O)O)c(=O)c2cc(F)c(N3CCNCC3)cc21` [Noroxin], the Category entry (in [1]; with E. coli strain 9003) was “R” each time.

With Bactrim, the Category result in [1] is given as “R”; in the assay on E. coli strain 9003, “S”.

Turning to Colimycin, the Category result (in [1]; in the assay on E. coli strain 9003) was “S” in each case.

Take Pristinamycin: the Category entry in the assay with Enterococcus strain 8152 and in the assay on Enterococcus strain 8153 was “S” each time. The Diameter in the assay with Enterococcus strain 8152 worked out at 23; in the assay on Enterococcus strain 8153, 22. In addition, the Cat. entry in assay [8], in [9] and in assay [10] was “S” throughout. Further, the figures for the D in assay [8], in [9] and in [10] were 32, 29 and 27, respectively.

The record behind these values is US9034918B2, “Composition including at least one trans-cinnamaldehyde and the use thereof in the treatment of bacterial infections, specifically in the treatment of nosocomial infections” (SEPTEOS, priority 2009, dated 2015).
